Source: patent US20250082793A1, “MACROCYCLIC COMPOUNDS AND METHODS OF MAKING THE SAME” (JANSSEN BIOTECH, INC., priority 2021, published 2025)

Assay: Chelation test with La^3+ (HPLC chromatograms prior and subsequent to mixing)
Type: physicochemical
Conditions: prior vs subsequent to mixing with La^3+

| chelation of La^3+ indicated by shift in HPLC retention time | Structure (SMILES) |
| --- | --- |
| rapid chelation of La^3+ | O=C(O)c1cccc(CN2CCOCCOCCN(C(c3ccccc3)c3cccc(C(=O)O)n3)CCOCCOCC2)n1 (centres unmarked) [TOPA-[C7]-phenyl, 6-((16-((6-carboxypyridin-2-yl)(phenyl)methyl)-1,4,10,13-tetraoxa-7,16-diazacyclooctadecan-7-yl)methyl)picolinic acid] |
| rapid chelation of La^3+ and Ac-225 | CC(C)CCC(c1cccc(C(=O)O)n1)N1CCOCCOCCN(Cc2cccc(C(=O)O)n2)CCOCCOCC1 (centres unmarked) [TOPA-[C7]-isopentyl, 6-((16-(1-(6-carboxypyridin-2-yl)-4-methylpentyl)-1,4,10,13-tetraoxa-7,16-diazacyclooctadecan-7-yl)methyl)picolinic acid] |
